This test concerns AFP promoter in hepatocyte lineage cells. As to the kind of experiment: AFP-eGFP reporter signaling in hepatocyte lineage cells generated using Activin. The conditions noted are these: H1-LZ-hAFP-eGFP derived cells; factor in HCM medium with HGF and EGF (1 μM dexamethazone from Day 11; 25 ng/mL Oncostatin M from Day 20). The test is classed as cell-based, human. As to the method:
The H1-LZ-hAFP-eGFP line of hES cells (Example 2) were expanded in mEF conditioned medium supplemented with 8 ng/mL bFGF on Matrigel™-coated plates. Once they reached 90-95% confluence, the cells were fed and cultured for one day (designated Day 1) with RPMI 1640 containing B27 supplement without vitamin A (GibcoBRL/Invitrogen # 12587-010), 1 mM sodium butyrate (Sigma Cat. no. B5887), and 100 ng/mL Activin A (R&D Systems #338-AC-025), and then for another two days in the same medium except having 0.5 mM sodium butyrate (Stage I). There was substantial cell death, with the remaining cells now having mesenchymal cell morphology, and some forming rosettes.
Starting on Day 4, the cells were fed daily with Knockout DMEM (GibcoBRL/Invitrogen #10829-018) containing 20% Knockout Serum Replacement (GibcoBRL/Invitrogen #10828-028), 2 mM L-glutamine, 1×nonessential amino acids, 0.1 mM β-mercaptoethanol, and 1% DMSO (Stage II). […] Starting on Day 20, the cells were fed on alternate days with HCM Bullet Kit, supplemented with 10 ng/mL human HGF, 10 ng/mL human EGF, and 25 ng/mL human Oncostatin M (Stage V).
In response to the medium components introduced on Day 11, about 60-70% of the cells began expressing eGFP, peaking by Day 19 or 20. Following the change of medium components on […], eGFP expression gradually disappeared.

For `C[C@@H]1C[C@H]2[C@@H]3CCC4=CC(=O)C=C[C@]4(C)[C@@]3(F)[C@@H](O)C[C@]2(C)[C@@]1(O)C(=O)CO` [dexamethazone], the AFP-eGFP reporter expression result is “expressed”.

B1: Oncostatin M: human Oncostatin M, late differentiation factor (protein, UniProt P13725 26-221, looked up)
Oncostatin-M: AAIGSCSKEYRVLLGQLQKQTDLMQDTSRLLDPYIRIQGLDVPKLREHCRERPGAFPSEETLRGLGRRGFLQTLNATLGCVLHRLADLEQRLPKAQDLERSGLNIEDLEKLQMARPNILGLRNNIYCMAQLLDNSDTAEPTKAGRGASQPPTPTPASDAFQRKLEGCRFLHGYHRFMHSVGRVFSKWGESPNRSRR
Turning to B1, the AFP-eGFP reporter expression entry is “decreased”.

The values above are taken from patent US20080152632A1, “Promoter-reporter cells for determining drug metabolism, drug interactions, and the effects of allotype variation” (Roslin Institute, priority 2005, published 2008).
